According to the NIST ThermoML archive (doi:10.1021/je0601457):
± gives the expanded uncertainty stated by the source.

Test: xn = mol fraction of the nth substance listed

c1cnccn1 [pyrazine] + O=C=O
Fluid (supercritical or subcritical phases), Linear displacement technique
Settings	mass density [kg/m3]
321.55 K, 14590 kPa, x1 = 0.177	866 ± 35
322.35 K, 7410 kPa, x1 = 0.495	980 ± 39
322.35 K, 10310 kPa, x1 = 0.495	990 ± 40
322.35 K, 13000 kPa, x1 = 0.495	963 ± 39
323.35 K, 10030 kPa, x1 = 0.074	825 ± 48
323.35 K, 10240 kPa, x1 = 0.074	835 ± 34
323.35 K, 11900 kPa, x1 = 0.074	876 ± 35
324.65 K, 9340 kPa, x1 = 0.015	394 ± 23
324.65 K, 9620 kPa, x1 = 0.015	408 ± 39
324.65 K, 9830 kPa, x1 = 0.015	423 ± 37
324.65 K, 10970 kPa, x1 = 0.015	576 ± 46
324.65 K, 11380 kPa, x1 = 0.015	611 ± 34
324.65 K, 11620 kPa, x1 = 0.015	627 ± 34
324.65 K, 11760 kPa, x1 = 0.015	640 ± 33
325.85 K, 10170 kPa, x1 = 0.116	739 ± 30
325.85 K, 13140 kPa, x1 = 0.116	767 ± 31
326.15 K, 9900 kPa, x1 = 0.019	460 ± 57
326.15 K, 10520 kPa, x1 = 0.019	580 ± 53
326.15 K, 11140 kPa, x1 = 0.019	656 ± 42
326.15 K, 11520 kPa, x1 = 0.019	688 ± 33
326.15 K, 12310 kPa, x1 = 0.019	729 ± 30
326.65 K, 8860 kPa, x1 = 0.397	1023 ± 41
326.65 K, 11070 kPa, x1 = 0.397	1027 ± 41
326.65 K, 14100 kPa, x1 = 0.397	1036 ± 41
327.25 K, 10170 kPa, x1 = 0.146	980 ± 39
327.25 K, 15900 kPa, x1 = 0.146	990 ± 46
328.15 K, 11830 kPa, x1 = 0.308	980 ± 39
328.15 K, 13760 kPa, x1 = 0.308	990 ± 40
328.15 K, 15340 kPa, x1 = 0.308	997 ± 40
332.95 K, 18030 kPa, x1 = 0.224	879 ± 35
334.05 K, 11550 kPa, x1 = 0.177	803 ± 33
334.05 K, 11900 kPa, x1 = 0.177	809 ± 32
334.05 K, 15590 kPa, x1 = 0.177	831 ± 33
334.75 K, 10340 kPa, x1 = 0.495	980 ± 39
334.75 K, 13550 kPa, x1 = 0.495	987 ± 39
334.75 K, 19410 kPa, x1 = 0.495	1002 ± 40
337.05 K, 11660 kPa, x1 = 0.146	760 ± 31
337.05 K, 15140 kPa, x1 = 0.146	792 ± 32
337.85 K, 12170 kPa, x1 = 0.09	738 ± 31
337.85 K, 12590 kPa, x1 = 0.09	752 ± 32
337.85 K, 15900 kPa, x1 = 0.09	815 ± 33
338.45 K, 11520 kPa, x1 = 0.019	475 ± 20
338.45 K, 11970 kPa, x1 = 0.019	512 ± 36
338.45 K, 12170 kPa, x1 = 0.019	526 ± 35
338.45 K, 12590 kPa, x1 = 0.019	565 ± 36
339.45 K, 12590 kPa, x1 = 0.074	708 ± 44
339.45 K, 13280 kPa, x1 = 0.074	750 ± 46
340.95 K, 12380 kPa, x1 = 0.116	693 ± 28
340.95 K, 15210 kPa, x1 = 0.116	739 ± 30
345.05 K, 12450 kPa, x1 = 0.224	823 ± 33
345.05 K, 19340 kPa, x1 = 0.224	858 ± 34
345.55 K, 10380 kPa, x1 = 0.397	995 ± 40
345.55 K, 12480 kPa, x1 = 0.397	999 ± 40
345.55 K, 12860 kPa, x1 = 0.397	1002 ± 40
347.75 K, 13030 kPa, x1 = 0.177	758 ± 31
347.75 K, 14100 kPa, x1 = 0.177	770 ± 31
347.75 K, 16790 kPa, x1 = 0.177	792 ± 32
348.05 K, 12310 kPa, x1 = 0.308	965 ± 39
348.05 K, 17620 kPa, x1 = 0.308	986 ± 39
348.05 K, 19720 kPa, x1 = 0.308	996 ± 40
348.95 K, 13380 kPa, x1 = 0.09	684 ± 27
348.95 K, 13690 kPa, x1 = 0.09	683 ± 27
348.95 K, 16450 kPa, x1 = 0.09	771 ± 32
350.55 K, 13760 kPa, x1 = 0.116	665 ± 27
350.55 K, 15520 kPa, x1 = 0.116	707 ± 29
350.85 K, 13410 kPa, x1 = 0.146	708 ± 28
351.95 K, 13450 kPa, x1 = 0.074	604 ± 27
351.95 K, 16280 kPa, x1 = 0.074	719 ± 31
352.35 K, 11140 kPa, x1 = 0.019	335 ± 23
352.35 K, 11210 kPa, x1 = 0.019	352 ± 21
352.35 K, 12310 kPa, x1 = 0.019	415 ± 23
352.35 K, 12480 kPa, x1 = 0.019	428 ± 22
352.35 K, 12790 kPa, x1 = 0.019	443 ± 22
360.85 K, 14860 kPa, x1 = 0.116	630 ± 26
360.85 K, 17720 kPa, x1 = 0.116	695 ± 29
362.25 K, 14720 kPa, x1 = 0.177	709 ± 29
362.25 K, 14830 kPa, x1 = 0.177	712 ± 29
362.25 K, 19480 kPa, x1 = 0.177	761 ± 31
362.35 K, 14660 kPa, x1 = 0.224	779 ± 31
362.35 K, 18660 kPa, x1 = 0.224	802 ± 32
365.65 K, 15210 kPa, x1 = 0.09	591 ± 24
366.25 K, 14930 kPa, x1 = 0.074	542 ± 22
366.25 K, 15760 kPa, x1 = 0.074	547 ± 23
366.25 K, 16860 kPa, x1 = 0.074	511 ± 23
369.65 K, 14550 kPa, x1 = 0.397	964 ± 39
369.65 K, 16410 kPa, x1 = 0.397	968 ± 39
369.65 K, 20720 kPa, x1 = 0.397	982 ± 39
372.55 K, 11480 kPa, x1 = 0.495	959 ± 38
372.55 K, 12720 kPa, x1 = 0.495	962 ± 38
372.55 K, 15000 kPa, x1 = 0.495	970 ± 39

linear displacement
Settings	mass density [kg/m3]
321.55 K, Liquid, x1 = 0.177	834 ± 33
322.35 K, Liquid, x1 = 0.495	975 ± 39
323.35 K, Liquid, x1 = 0.074	810 ± 32
324.65 K, Gas, x1 = 0.015	382 ± 15
325.85 K, Liquid, x1 = 0.116	734 ± 30
326.15 K, Gas, x1 = 0.019	442 ± 18
326.65 K, Liquid, x1 = 0.397	1017 ± 41
327.25 K, Liquid, x1 = 0.146	790 ± 32
328.15 K, Liquid, x1 = 0.308	970 ± 39
332.95 K, Liquid, x1 = 0.224	842 ± 34
334.05 K, Liquid, x1 = 0.177	795 ± 32
334.75 K, Liquid, x1 = 0.495	972 ± 39
337.05 K, Liquid, x1 = 0.146	753 ± 30
337.85 K, Liquid, x1 = 0.09	727 ± 29
338.45 K, Gas, x1 = 0.019	431 ± 18
339.45 K, Liquid, x1 = 0.074	695 ± 28
340.95 K, Liquid, x1 = 0.116	684 ± 27
345.05 K, Liquid, x1 = 0.224	816 ± 33
345.55 K, Liquid, x1 = 0.397	991 ± 40
347.75 K, Liquid, x1 = 0.177	751 ± 30
348.05 K, Liquid, x1 = 0.308	957 ± 38
348.95 K, Liquid, x1 = 0.09	672 ± 27
350.55 K, Liquid, x1 = 0.116	651 ± 26
350.85 K, Liquid, x1 = 0.146	703 ± 29
351.95 K, Liquid, x1 = 0.074	589 ± 24
352.35 K, Gas, x1 = 0.019	324 ± 18
360.85 K, Liquid, x1 = 0.116	620 ± 25
362.25 K, Liquid, x1 = 0.177	704 ± 29
362.35 K, Liquid, x1 = 0.224	770 ± 31
365.65 K, Liquid, x1 = 0.09	582 ± 23
366.25 K, Liquid, x1 = 0.074	532 ± 22
369.65 K, Liquid, x1 = 0.397	952 ± 38
372.55 K, Liquid, x1 = 0.495	955 ± 38
